Measured values published in patent US8691725B2, “Synergistic combination of a glyphosate compound and TBZ” (Dow Global Technologies LLC, priority 2010, dated 2014).

Columns and labels:
[1] = system: Chlorella sp., Chlorella kessleri, and Nostoc commune; assay: Algal efficacy on dry paint film (Modified ASTM 5589), pool Cs + Ck + Nc (Ch-No); assay type: cell-based
Method: (§1) Each sample was tested in duplicate.
(§2) In this synergy study, three pool of mixed algae were prepared as the test inoculum, Gloeocapsa sp. and Oscillatoria sp. a mix of cyanobacteria grown on BG-11 media; Chlorella sp., Chlorella kessleri, and Nostoc commune are unicellular chlorphytes that were mixed and grown on Bold media; Trentepohlia aurea, Tretepohlia odorata, and Calotrix parientina are filamentous algae that were mixed and grown on Bold media.
(§3) The plates were incubated at room temp (25° C.-26° C.) with cyclic exposure to light (OTT-Lite model # OTL4012P, 40 Watt, 26 KLumen) and dark phases, for a period of four weeks. The total area covered was evaluated at the end of each week according to percent area covered in 5% increments.
(§4) The SI is calculated based on F. C. Kull et.
(§5) SI value of <1 in the formula indicates a synergism of the blended biocides exists.
(§6) NE=no end point at the concentration tested that will meet the percent inhibition criteria set in each SI calculation.

[2] = system: Trentepohlia aurea, Tretepohlia odorata, and Calotrix parientina; assay: Algal efficacy on dry paint film (Modified ASTM 5589), pool Cp + To + Ta (Cal-Tre); assay type: cell-based
Method: as §1, §2, §3, §4, §5, §6

[3] = system: Gloeocapsa sp. and Oscillatoria sp.; assay: Algal efficacy on dry paint film (Modified ASTM 5589), pool Gs + Os (Os-Gl); assay type: cell-based
Method: as §1, §2, §3, §4, §5, §6

[4] = system: Aspergillus niger mixed with Penicillium funiculosum; assay: Fungal efficacy on dry paint film (Modified ASTM 5590), pool An + Pf; assay type: cell-based; conditions: for % Inhibition: at the total conc for the same composition
Method: as §1, §4, §5, §6

Ap-Ch = assay: Fungal efficacy on dry paint film (Modified ASTM 5590), pool Ap-Ch; assay type: cell-based, Aureobasidium pullulans + Cladosporium herbarum
Method: as §1, §4, §5, §6

Aa-Tv = assay: Fungal efficacy on dry paint film (Modified ASTM 5590), pool Aa-Tv; assay type: cell-based, Alternaria alternata + Trichoderma viride
Method: as §1, §4, §5, §6

[5] = cited from earlier work
[6] = at the total conc for the same composition

Row | Compound | % Inhibition [1, 6] [%] | Total conc (minimum inhibitory concentration chosen for SI) ([1]; total actives in paint) [pppm] | % Inhibition [2, 6] [%] | Total conc (minimum inhibitory concentration chosen for SI) ([2]; total actives in paint) [pppm] | % Inhibition [3, 6] [%] | Total conc (minimum inhibitory concentration chosen for SI) ([3]; total actives in paint) [pppm] | % Inhibition [4] [%] | Total conc (minimum inhibitory concentration chosen for SI) ([4]; total actives in paint) [pppm] | % Inhibition (Ap-Ch; [6]) [%] | Total conc (minimum inhibitory concentration chosen for SI) (Ap-Ch; total actives in paint) [pppm] | % Inhibition (Aa-Tv; [6]) [%] | Total conc (minimum inhibitory concentration chosen for SI) (Aa-Tv; total actives in paint) [pppm] | solubility in water [5]
1 | c1ccc2[nH]c(-c3cscn3)nc2c1 [TBZ, thiabendazole] | 80 | 2475 | 80 | 1650 | 80 | 3300 | 70 | 2475 | 100 | 1650 | 0 | 3300 | 
2 | O=C(O)CNCP(=O)(O)O [glyphosate, N-(phosphonomethyl)glycine] |  |  |  |  |  |  |  |  |  |  |  |  | relatively high solubility in water
3 | zinc glyphosate |  |  |  |  |  |  | 70 |  |  |  |  |  | 
